{
  "source": "patent US20060280700A1",
  "about": "“Oral hygiene system to fight the effects of aging on the mouth, gums, and teeth” (priority 2005, published 2006)",
  "origin": "cited, not measured here",
  "key": {"[1]": {"system": "oral squamous carcinoma cells", "details": "for inhibition in growth of oral squamous carcinoma cells: in culture"}, "Streptococcus mutants": {"system": "Streptococcus mutants", "details": "rodent model inoculated with Streptococcus mutants"}},
  "data": [
    {"compound": "Oc1cc(O)c2c(c1)O[C@H](c1cc(O)c(O)c(O)c1)[C@H](O)C2", "note": "[EGC, (−) epigauocatechin]", "values": [
      {"measurement": "inhibition of DNA synthesis", "setting": "[1]", "value": "dose-dependent inhibition"},
      {"measurement": "inhibition in growth of oral squamous carcinoma cells", "setting": "[1]", "value": "significant dose dependent inhibition"}
    ]},
    {"compound": "(−)-gallocatechin gallate", "values": [
      {"measurement": "inhibition of the activity of Pophyromonas proteinases", "setting": "Pophyromonas proteinases", "value": "significantly inhibited"}
    ]},
    {"compound": "OC[C@@H](O)[C@H](O)[C@@H](O)CO", "note": "[Xylitol]", "values": [
      {"measurement": "cariogenic action", "setting": "Streptococcus mutants", "value": "little or no cariogenic action"}
    ]},
    {"compound": "(−)-epicatechin-3-gallate [ECG]", "values": [
      {"measurement": "inhibition of the activity of Pophyromonas proteinases", "setting": "Pophyromonas proteinases", "value": "significantly inhibited"},
      {"measurement": "inhibition of DNA synthesis", "setting": "[1]", "value": "dose-dependent inhibition"},
      {"measurement": "inhibition in growth of oral squamous carcinoma cells", "setting": "[1]", "value": "significant dose dependent inhibition"}
    ]},
    {"compound": "O=C(O[C@@H]1Cc2c(O)cc(O)cc2O[C@H]1c1ccc(O)c(O)c1)c1cc(O)c(O)c(O)c1", "note": "[(−)-catechin gallate]", "values": [
      {"measurement": "inhibition of the activity of Pophyromonas proteinases", "setting": "Pophyromonas proteinases", "value": "significantly inhibited"}
    ]},
    {"compound": "O=C(O[C@@H]1Cc2c(O)cc(O)cc2O[C@@H]1c1cc(O)c(O)c(O)c1)c1cc(O)c(O)c(O)c1", "note": "[EGCG, (−)-epigallocatechin-3-gallate]", "values": [
      {"measurement": "inhibition of the activity of Pophyromonas proteinases", "setting": "Pophyromonas proteinases", "value": "significantly inhibited"},
      {"measurement": "inhibition of DNA synthesis", "setting": "[1]", "value": "dose-dependent inhibition"},
      {"measurement": "inhibition in growth of oral squamous carcinoma cells", "setting": "[1]", "value": "significant dose dependent inhibition"}
    ]}
  ]
}
